Assay results from paper PMC6934184, “Selective DNA-PKcs inhibition extends the therapeutic index of localized radiotherapy and chemotherapy” (The Journal of Clinical Investigation, 2019).

Target: T1, MAP2K3 (MEK3) (Homo sapiens, UniProt P46734)
T1 construct: purchased Thermo Fisher Scientific (Life Technologies) SelectScreen
Test: SelectScreen LanthaScreen
Assay type: binding
Conditions: read-out: % displacement
Summary of the method: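 NU5455 was profiled across the SelectScreen Broad panel of kinase activity and binding assays. Z'LYTE reactions such as CSF1R ran at apparent Km ATP, while the Adapta CAMK1 assay used ATP listed as 10. Values are given as percent.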

T1 sequence (P46734 whole entry): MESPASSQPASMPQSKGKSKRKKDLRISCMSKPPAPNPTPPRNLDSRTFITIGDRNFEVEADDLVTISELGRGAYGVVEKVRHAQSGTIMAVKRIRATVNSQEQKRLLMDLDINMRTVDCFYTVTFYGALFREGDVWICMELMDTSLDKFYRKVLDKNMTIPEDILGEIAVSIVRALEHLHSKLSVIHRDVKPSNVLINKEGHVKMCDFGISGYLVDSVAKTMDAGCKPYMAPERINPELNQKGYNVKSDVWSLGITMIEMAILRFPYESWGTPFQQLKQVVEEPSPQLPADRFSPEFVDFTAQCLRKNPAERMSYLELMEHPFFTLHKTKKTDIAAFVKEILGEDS

CN(C(=O)CN1CCOCC1)c1ccc2sc3c(-c4cccc5c(=O)cc(N6CC7CCC(C6)O7)oc45)cccc3c2c1 [NU5455]
inhibition at 1 µM: 1.6%
